The values below come from article PMC3853281, “The Strawberry Pathogenesis-related 10 (PR-10) Fra a Proteins Control Flavonoid Biosynthesis by Binding to Metabolic Intermediates” (The Journal of Biological Chemistry, 2013).

For assay [1], the target named is T1, Fra a 1E (Fragaria x ananassa, UniProt Q256S2).
T1 construct: gene FRAA1E.1; full-length ORF in pETM11, E. coli BL21(DE3); N-terminal His6 cut by TEV, Ala-Met-Ala left at N-terminus; monomer, 18 kDa by SEC-MALLS; residues 2-160 modelled
T1 sequence (Q256S2 whole entry, the tested form may be a part): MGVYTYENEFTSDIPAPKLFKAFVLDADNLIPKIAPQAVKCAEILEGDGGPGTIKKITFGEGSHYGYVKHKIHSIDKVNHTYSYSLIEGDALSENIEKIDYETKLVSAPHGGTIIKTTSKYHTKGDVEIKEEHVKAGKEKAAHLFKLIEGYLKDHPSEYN
The assay can be described thus: isothermal titration calorimetry. The assay is classed as binding.

Assay [2] deals with T2, Fra a 2 (Fragaria x ananassa, UniProt D0E0C6).
T2 construct: gene FRAA2; full-length ORF in pETM11, E. coli BL21(DE3); N-terminal His6 cut by TEV, Ala-Met-Ala left at N-terminus; apparent 28 kDa by SEC-MALLS
T2 sequence (D0E0C6 whole entry): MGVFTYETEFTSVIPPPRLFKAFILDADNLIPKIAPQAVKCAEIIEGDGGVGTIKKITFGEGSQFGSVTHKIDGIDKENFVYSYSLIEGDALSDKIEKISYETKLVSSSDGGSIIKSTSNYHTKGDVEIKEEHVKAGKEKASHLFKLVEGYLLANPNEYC
In words: isothermal titration calorimetry. The format is binding. On the technique in general: ITC needs no label: the signal is the heat of the interaction.

`O=C(O)[C@H]1O[C@@H](Oc2c(-c3ccc(O)c(O)c3)oc3cc(O)cc(O)c3c2=O)[C@H](O)[C@@H](O)[C@@H]1O` [Quercetin-3-O-glucuronide] displayed a Kd in assay [1] of 5.3 µM.

Take `O=c1c(O)c(-c2cc(O)c(O)c(O)c2)oc2cc(O)cc(O)c12` [myricetin]: in assay [2], the Kd is 19.5 µM.

By Kd is commonly meant a measure of binding affinity in units of concentration. The low end stands for higher affinity, the high end for lower affinity.
